Source: US20120270929A1, “MODULATION OF TTC39 EXPRESSION TO INCREASE HDL” (ISIS Pharmaceuticals, Inc., priority 2009, published 2012)
Oligonucleotides are written 5' to 3', each unit as a sugar letter and its base; * is a phosphorothioate linkage, no mark a phosphodiester; rarer units and linkages stand in square brackets, end groups in braces. Plain capitals give the bases only. e = 2'-O-(2-methoxyethyl) (MOE); [5mC] = 5-methylcytosine; d = 2'-deoxy (DNA)

Key:
[1] = test system: murine TTC39B mRNA; test: Dose-dependent antisense inhibition of murine TTC39B in mouse primary hepatocytes (Example 2); assay type: cell-based; conditions: cytofectin, ~16 h
How it was run: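 Mouse primary hepatocytes (10,000/well) transfected via cytofectin with 25, 50, 100 or 200 nM antisense oligonucleotide for about 16 h. TTC39B mRNA quantified by real-time PCR, normalized to RIBOGREEN total RNA, as % inhibition versus untreated cells.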

[2] = Plasma NEFA and 3-HB in C57BL/6 mice; assay type: in vivo, mouse; parameters: 3-HB levels: unit not given here; conditions: for 3-HB % change over the baseline / NEFA % change over the baseline: 6 weeks
Experimental: (§1) Four groups of five mice each were injected twice a week with 25 mg/kg (totaling 50 mg/kg/week) of ISIS 447114, ISIS 447118, ISIS 447143, or ISIS 447144 for 6 weeks. A control group of five mice was injected with phosphate buffered saline (PBS) twice a week for 6 weeks. Plasma samples were obtained before the start of treatment, at week 3 and at week 6. At the end of the treatment period, mice were fasted for 4 hours before being euthanized. Plasma and tissue samples were obtained for further analysis.
Effect of antisense inhibition of TTC39B on free fatty acid levels Plasma levels of non-esterified fatty acids (NEFA) and 3-hydroxybutyric acid (3-HB), which are the end-products of fatty acid oxidation, were measured using an automated clinical chemistry analyzer (Olympus Clinical Analyzer).

[3] = test system: murine TTC39B mRNA; test: Antisense inhibition of murine TTC39B in mouse primary hepatocytes, single dose; assay type: cell-based; conditions: 100 nM, cytofectin, ~24 h, vs untreated control; gapmers targeted to SEQ ID NO: 6
How it was run: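 Mouse primary hepatocytes transfected by cytofectin with 100 nM 5-10-5 MOE gapmer (20-mer, phosphorothioate, 5-methylcytosine) for ~24 h. TTC39B mRNA quantified by real-time qPCR, normalized to RIBOGREEN total RNA. Values given as percent inhibition versus untreated cells.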

[4] = test system: APOA1 plasma protein; test: APOA1 plasma protein levels in C57BL/6 mice; assay type: in vivo, mouse; parameters: APOA1 plasma protein levels: unit not given here; conditions: for APOA1 plasma protein % change over the baseline: 6 weeks
Experimental: as §1

[5] = test system: apoA1 mRNA; test: apoA1 mRNA levels in C57BL/6 mice after TTC39B inhibition; assay type: in vivo, mouse; conditions: 50 mg/kg/week, 6 weeks
Experimental: as §1
The effect of inhibition of TTC39B in mice on these proteins of reverse cholesterol transport was studied. RNA levels of ABCA1 were measured using murine primer probe set RTS1204 (forward sequence […], designated herein as SEQ ID NO: 97; reverse sequence […], designated herein as SEQ ID NO: 98; and probe sequence […], designated herein as SEQ ID NO: 99). RNA levels of apoA1 were measured using murine primer probe set RTS14737 (forward sequence […], designated herein as SEQ ID NO: 100; reverse sequence […], designated herein as SEQ ID NO: 101; and probe sequence […], designated herein as SEQ ID NO: 102). RNA levels of SRB1 were measured using murine primer probe set mSRB-1 (forward sequence […], designated herein as SEQ ID NO: 103; reverse sequence ATGCGACTTGTCAGGCTGG, designated herein as SEQ ID NO: 104; and probe sequence […], designated herein as SEQ ID NO: 105).

[6] = test system: Farnesyl diphosphate synthetase (Fdps) mRNA; test: PCR microarray analysis of liver, LDLr-/- mice: Fdps; assay type: in vivo, mouse; conditions: 6 weeks
Experimental: Four groups of five male mice each were injected with a total of 1.5, 5, 15, or 50 mg/kg/week of ISIS 447118 for 6 weeks. A group of five mice was injected with a total of 50 mg/kg/week of control oligonucleotide ISIS 141923 ([…], designated herein as SEQ ID NO: 112, which has no known murine target) for 6 weeks. A control group of five mice was injected with phosphate buffered saline (PBS) twice a week for 6 weeks. Plasma samples were obtained before the start of treatment, at week 3 and at week 6. At the end of the treatment period, the mice were euthanized. Plasma and tissue samples were obtained for further analysis.
Liver samples from the mice groups were analyzed using a commercial kit for PCR microarray analysis (SA Biosciences Corp., MD), according to the manufacturer's instructions. Genes involved in lipoprotein and cholesterol metabolism were compared with the PBS control.

[7] = Week 0 (before treatment), 50 mg/kg/week

| Sequence | percent inhibition of TTC39B mRNA ([1]; 25 nM) [%] | percent inhibition of TTC39B mRNA ([1]; 50 nM) [%] | percent inhibition of TTC39B mRNA ([1]; 100 nM) [%] | percent inhibition of TTC39B mRNA ([1]; 200 nM) [%] | 3-HB % change over the baseline ([2]; 50 mg/kg/week) | NEFA % change over the baseline ([2]; 50 mg/kg/week) | 3-HB levels [2, 7] | NEFA levels [2, 7] [mEq/L] | 3-HB levels ([2]; Week 3, 50 mg/kg/week) | NEFA levels ([2]; Week 3, 50 mg/kg/week) [mEq/L] | 3-HB levels ([2]; Week 6, 50 mg/kg/week) | NEFA levels ([2]; Week 6, 50 mg/kg/week) [mEq/L] | % inhibition of murine TTC39B mRNA [3] [%] | APOA1 plasma protein % change over the baseline ([4]; 50 mg/kg/week) | APOA1 plasma protein levels [4, 7] | APOA1 plasma protein levels ([4]; Week 3, 50 mg/kg/week) | APOA1 plasma protein levels ([4]; Week 6, 50 mg/kg/week) | apoA1 mRNA levels (effect of TTC39B inhibition) [5] | apoA1 mRNA levels (effect of TTC39B inhibition) ([5]; 50 mg/kg) | also measured |
| --- | --- | --- | --- | --- | --- | --- | --- | --- | --- | --- | --- | --- | --- | --- | --- | --- | --- | --- | --- | --- |
| CGGATGATTCTTGCTGGTAA (antisense e[5mC]*eG*eG*eA*eT*dG*dA*dT*dT*d[5mC]*dT*dT*dG*d[5mC]*dT*eG*eG*eT*eA*eA) [ISIS 447114] | 42 | 70 | 85 | 92 | +184% | +144% | 145 | 0.67 | 109 | 0.49 | 449 | 1.52 | 73 | +122% | +9 | +12 | +22 | −14 | – | – |
| GCCACCAGTGCCTGCTGAGC (antisense eG*e[5mC]*e[5mC]*eA*e[5mC]*d[5mC]*dA*dG*dT*dG*d[5mC]*d[5mC]*dT*dG*d[5mC]*eT*eG*eA*eG*e[5mC]) [ISIS 447143] | 36 | 71 | 79 | 91 | +41% | +109% | 108 | 0.70 | 89 | 0.72 | 222 | 1.30 | 74 | +108% | +10 | +15 | +20 | – | average increase | apoA1 mRNA levels (effect of TTC39B inhibition) ([5]; listed as 447143, 50 mg/kg): +1 |
| TATTTCTATAGCTCATGACA (antisense eT*eA*eT*eT*eT*d[5mC]*dT*dA*dT*dA*dG*d[5mC]*dT*d[5mC]*dA*eT*eG*eA*e[5mC]*eA) [ISIS 447144] | 37 | 69 | 74 | 84 | +152% | +101% | 124 | 0.57 | 122 | 0.63 | 398 | 1.25 | 69 | +108% | +10 | +14 | +20 | – | average increase | apoA1 mRNA levels (effect of TTC39B inhibition) ([5]; listed as 447144, 50 mg/kg): +50 |
| GCAGCTCGATTCGGGCATGA (antisense eG*e[5mC]*eA*eG*e[5mC]*dT*d[5mC]*dG*dA*dT*dT*d[5mC]*dG*dG*dG*e[5mC]*eA*eT*eG*eA) [ISIS 447118] | 49 | 65 | 74 | 82 | +157% | +90% | 158 | 0.67 | 111 | 0.51 | 406 | 1.18 | 76 | +88% | +9 | +13 | +18 | −23 | – | Fdps fold increase/decrease relative to PBS group ([6]; 1.5 mg/kg): 1.03 fold; Fdps fold increase/decrease relative to PBS group ([6]; 5 mg/kg): 0.84 fold; Fdps fold increase/decrease relative to PBS group ([6]; 15 mg/kg): 0.8 fold; Fdps fold increase/decrease relative to PBS group ([6]; 50 mg/kg): 0.66 fold |
